The assay has as its system PnpA (His-6-PnpA; p-nitrophenol 4-monooxygenase, PnpM). Briefly: spectrophotometric monooxygenase assay, Michaelis-Menten. In kind it is biochemical, Burkholderia sp. SJ98. From the text: spectrophotometric monooxygenase assay, Michaelis-Menten on PnpA (His-6-PnpA; p-nitrophenol 4-monooxygenase, PnpM)

Where two headings read alike, the source gives them in different places.

Usually Km stands for the concentration of substrate that gives half-maximal velocity. For the molecule `NC(=O)C1=CN([C@@H]2O[C@H](COP(=O)(O)OP(=O)(O)OC[C@H]3O[C@@H](n4cnc5c(N)ncnc54)[C@H](O)[C@@H]3O)[C@@H](O)[C@H]2O)C=CC1` [NADH], the Km is 96 ± 7.74 µM.

Take `O=[N+]([O-])c1ccc(O)cc1` [PNP, p-nitrophenol]: the Km (fixed NADH, 0.02 mM FAD, 50 mM phosphate pH 7.4, PNP 12.5-250 µM) is 35.4 ± 5.95 µM.

The values are drawn from paper PMC3871574, “Genes Involved in Degradation of para-Nitrophenol Are Differentially Arranged in Form of Non-Contiguous Gene Clusters in Burkholderia sp. strain SJ98” (PLoS ONE, 2013).
